In patent US6310210A, “Camptothecin derivatives” (Kabushiki Kaisha Yakult Honsha, priority 1997, dated 2001):
≈ marks a conversion by molar mass, not a printed value. Structures can show the parent of a compound that is named as a salt. One block for each compound: values may come before it.

Experiments:
[1] = Solubility of each hydrochloride in purified water; assay type: physicochemical
Protocol: A corresponding camptothecin-21-(2-dimethylamino) ethylamide derivative (100-200 mg) was added with an aqueous 0.1 N HCl solution (1.05 eq.) and dissolved, if necessary, further by adding purified water. The solution was filtered using MILLEX-GV ([…] Filter Unit), and the filtrate was lyophilized to give the desired hydrochloride.
Table 1: Solubility of each hydrochloride in purified water

[2] = test system: mouse leukemia L1210; assay: Anti-tumor activity: life prolonging effect in mice transplanted intraperitoneally with mouse leukemia L1210 (T/C%); assay type: in vivo; conditions: for Anti-tumor activity (T/C%): i.p. day 1, 5 and 9; for Anti-tumor activity: fraction in parentheses after T/C% (meaning not given): group of six mice
Protocol: 5×10^5 cells of mouse leukemia L1210 were transplanted intraperitoneally to a group of six female CDP1 mice (7 weeks old, body weight 17-19 g). A test substance was administered intraperitoneally on day 1, 5 and 9, and its life prolonging effect was observed. In a case of the administration of a test substance as an acid addition salt, it was dissolved in purified water. The total administration amount was 1.56-400 mg/kg. The anti-tumor activity was expressed by the value (T/C%) in which the ratio of the mean survival days of a drug administered group (T) to the mean survival days of a not administered group (C) is multiplied by 100.

[3] = Stability test in water at each pH (phosphate buffer, HPLC); assay type: physicochemical; conditions: for Amount of the compound in test solution: room temperature (about 26° C.)
Protocol: 1) Preparation of calibration curve:
1.05 mg of the compound 1 and 1.10 mg of the compound A (Note) were measured, dissolved in acetonitrile 10 ml to give a standard solution. 20 μl of the standard solution was tested by HPLC method (procedure condition 1). The peak area of the compound 1 and the compound A (Note), which is obtained from the chromatograph of the standard solution is measured by an automatic integration method, and the obtained area is plotted against an amount of the compound 1 and the compound A (2.1 μg and 2.2 μg) by 20 μl to prepare a calibration curve.
[HPLC method, procedure condition 1]
Column: Inertsil ODS-3 (5-250), 40 deg.
Mobile phase: 0.01 M potassium dihydrogenphosphate-acetonitrile (3:1)
Detection: UV absorptiometer (254 nm)
About 1 mg (×3) of the compound 1 were measured, dissolved adding a phosphate buffer 10 ml of pH 10.0, 7.0 or 5.4, stirred at room temperature (about 26° C.) to make a test solution. As to each 20 μl of the test solution at the time of dissolution, 3 hr later and 24 hr later, the tests were carried out by the HPLC method (procedure condition 1). The amounts of the compound 1 were measured from the obtained area. The amounts of the compound A in each pH were measured.
The amounts (μg/ml) of the compound 1 and the compound A at the time of dissolution, 3 hr later and 24 hr later in each pH are shown in Table 7.

solubility [1]: ~14 mg/mL (≈ 26.1 mM)
SMILES: CCNC(=O)OCc1c([C@@](O)(CC)C(=O)NCCN(C)C)cc2n(c1=O)Cc1c-2nc2ccccc2c1CC [Compound 2, 7-Ethyl-17-ethylcarbamoyloxycamptothecin-21-(2-dimethylamino)ethylamide]

solubility [1]: ~11 mg/mL (≈ 20 mM)
SMILES: CCCNC(=O)OCc1c([C@@](O)(CC)C(=O)NCCN(C)C)cc2n(c1=O)Cc1c-2nc2ccccc2c1CC [Compound 3, 7-Ethyl-17-n-propylcarbamoyloxycamptothecin-21-(2-dimethylamino)ethylamide]
Anti-tumor activity (T/C%) ([2]; Table 2, total dose 3.13 mg/kg): 100%
Anti-tumor activity (T/C%) ([2]; Table 2, total dose 6.25 mg/kg): 100%
Anti-tumor activity (T/C%) ([2]; Table 2, total dose 12.5 mg/kg): 139%
Anti-tumor activity (T/C%) ([2]; Table 2, total dose 25 mg/kg): 142%
Anti-tumor activity (T/C%) ([2]; Table 2, total dose 50 mg/kg): 147%
Anti-tumor activity (T/C%) ([2]; Table 2, total dose 100 mg/kg): 147%
Anti-tumor activity (T/C%) ([2]; Table 2, total dose 200 mg/kg): 147%

solubility [1]: ~50 mg/mL (≈ 91 mM)
SMILES: CCc1c2c(nc3ccccc13)-c1cc([C@@](O)(CC)C(=O)NCCN(C)C)c(COC(=O)NC(C)C)c(=O)n1C2 [Compound 4, 7-Ethyl-17-iso-propylcarbamoyloxycamptothecin-21-(2-dimethylamino)ethylamide]
Anti-tumor activity (T/C%) ([2]; Table 4, total dose 3.13 mg/kg): 121%
Anti-tumor activity (T/C%) ([2]; Table 4, total dose 6.25 mg/kg): 123%
Anti-tumor activity (T/C%) ([2]; Table 4, total dose 12.5 mg/kg): 121%
Anti-tumor activity (T/C%) ([2]; Table 4, total dose 25 mg/kg): 123%
Anti-tumor activity (T/C%) ([2]; Table 4, total dose 50 mg/kg): 149%
Anti-tumor activity (T/C%) ([2]; Table 4, total dose 100 mg/kg): 205%
Anti-tumor activity: fraction in parentheses after T/C% (meaning not given) ([2]; Table 4, total dose 200 mg/kg): 1/6
Anti-tumor activity (T/C%) ([2]; Table 4, total dose 200 mg/kg): 323%

solubility [1]: ~10 mg/mL (≈ 17.7 mM)
SMILES: CCCCNC(=O)OCc1c([C@@](O)(CC)C(=O)NCCN(C)C)cc2n(c1=O)Cc1c-2nc2ccccc2c1CC [Compound 5, 17-n-Butylcarbamoyloxy-7-ethylcamptothecin-21-(2-dimethylamino)ethylamide]

solubility [1]: ~50 mg/mL (≈ 84.8 mM)
SMILES: CCc1c2c(nc3ccccc13)-c1cc([C@@](O)(CC)C(=O)NCCN(C)C)c(COC(=O)NC3CCCCC3)c(=O)n1C2 [Compound 6, 7-Ethyl-17-c-hexylcarbamoyloxycamptothecin-21-(2-dimethylamino)ethylamide]

solubility [1]: ~15 mg/mL (≈ 25.7 mM)
SMILES: CCc1c2c(nc3ccccc13)-c1cc([C@@](O)(CC)C(=O)NCCN(C)C)c(COC(=O)Nc3ccccc3)c(=O)n1C2 [Compound 7, 7-Ethyl-17-phenylcarbamoyloxycamptothecin-21-(2-dimethylamino)ethylamide]

solubility [1]: ~11 mg/mL (≈ 18.3 mM)
SMILES: CCc1c2c(nc3ccccc13)-c1cc([C@@](O)(CC)C(=O)NCCN(C)C)c(COC(=O)Nc3ccccc3F)c(=O)n1C2 [Compound 8, 7-Ethyl-17-(2-fluorophenylcarbamoyloxy)-camptothecin-21-(2-dimethylamino)ethylamide]

solubility [1]: ~28 mg/mL (≈ 46.5 mM)
SMILES: CCc1c2c(nc3ccccc13)-c1cc([C@@](O)(CC)C(=O)NCCN(C)C)c(COC(=O)Nc3cccc(F)c3)c(=O)n1C2 [Compound 9, 7-Ethyl-17-(3-fluorophenylcarbamoyloxy)-camptothecin-21-(2-dimethylamino)ethylamide]

solubility [1]: ~7 mg/mL (≈ 11.6 mM)
SMILES: CCc1c2c(nc3ccccc13)-c1cc([C@@](O)(CC)C(=O)NCCN(C)C)c(COC(=O)Nc3ccc(F)cc3)c(=O)n1C2 [Compound 10, 7-Ethyl-17-(4-fluorophenylcarbamoyloxy)-camptothecin-21-(2-dimethylamino)ethylamide]
Anti-tumor activity (T/C%) ([2]; Table 4, total dose 3.13 mg/kg): 115%
Anti-tumor activity (T/C%) ([2]; Table 4, total dose 6.25 mg/kg): 118%
Anti-tumor activity (T/C%) ([2]; Table 4, total dose 12.5 mg/kg): 123%
Anti-tumor activity (T/C%) ([2]; Table 4, total dose 25 mg/kg): 136%
Anti-tumor activity (T/C%) ([2]; Table 4, total dose 50 mg/kg): 174%
Anti-tumor activity (T/C%) ([2]; Table 4, total dose 100 mg/kg): 221%
Anti-tumor activity (T/C%) ([2]; Table 4, total dose 200 mg/kg): 310%

solubility [1]: ~5 mg/mL (≈ 7.89 mM)
SMILES: CCc1c2c(nc3ccccc13)-c1cc([C@@](O)(CC)C(=O)NCCN(C)C)c(COC(=O)Nc3cccc4ccccc34)c(=O)n1C2 [Compound 11, 7-Ethyl-17-(1-naphthylcarbamoyloxy)-camptothecin-21-(2-dimethylamino)ethylamide]

solubility [1]: ~53 mg/mL (≈ 94 mM)
SMILES: CCc1c2c(nc3ccccc13)-c1cc([C@@](O)(CC)C(=O)NCCN(C)C)c(COC(=O)N(CC)CC)c(=O)n1C2 [Compound 15, 17-Diethylcarbamoyloxy-7-ethylcamptothecin-21-(2-dimethylamino)ethylamide]

solubility [1]: ≥ 33 mg/mL
SMILES: CCc1c2c(nc3ccccc13)-c1cc([C@@](O)(CC)C(=O)NCCN(C)C)c(COC(=O)N3CCN(CC(=O)NC(C)C)CC3)c(=O)n1C2 [Compound 16, 7-Ethyl-17-(4-isopropylaminocarbonylmethyl-piperazino)-carbamoyloxy-camptothecin-21-(2-dimethylamino)ethylamide]

solubility [1]: ≥ 50 mg/mL
SMILES: CCc1c2c(nc3ccccc13)-c1cc([C@@](O)(CC)C(=O)NCCN(C)C)c(COC(=O)OC)c(=O)n1C2 [Compound 18, 7-Ethyl-17-methoxycarbonyloxycamptothecin-21-(2-dimethylamino)ethylamide]

solubility [1]: ≥ 52 mg/mL
SMILES: CCOC(=O)OCc1c([C@@](O)(CC)C(=O)NCCN(C)C)cc2n(c1=O)Cc1c-2nc2ccccc2c1CC [Compound 19, 7-Ethyl-17-ethoxycarbonyloxycamptothecin-21-(2-dimethylamino)ethylamide]

solubility [1]: ≥ 52 mg/mL
SMILES: CCCOC(=O)OCc1c([C@@](O)(CC)C(=O)NCCN(C)C)cc2n(c1=O)Cc1c-2nc2ccccc2c1CC [Compound 20, 7-Ethyl-17-n-propoxycarbonyloxycamptothecin-21-(2-dimethylamino)ethylamide]

SMILES: CCCCOC(=O)OCc1c([C@@](O)(CC)C(=O)NCCN(C)C)cc2n(c1=O)Cc1c-2nc2ccccc2c1CC [Compound 21, 17-n-Butoxycarbonyloxy-7-ethyl-camptothecin-21-(2l-dimethylamino)ethylamide]
solubility [1]: ≥ 54 mg/mL

SMILES: CCc1c2c(nc3ccccc13)-c1cc([C@@](O)(CC)C(=O)NCCN(C)C)c(COC(C)=O)c(=O)n1C2 [Compound A, 7-Ethyl-17-acetoxycamptothecin-21-(2-dimethylamino)ethylamide hydrochloride, reference compound]
Amount of the compound in test solution ([3]; pH 5.4, 3 hr later): 126 µg/mL
Amount of the compound in test solution ([3]; pH 5.4, 24 hr later): 124 µg/mL
Amount of the compound in test solution ([3]; pH 5.4, at the time of dissolution): 126 µg/mL
Amount of the compound in test solution ([3]; pH 7.0, 3 hr later): 110 µg/mL
Amount of the compound in test solution ([3]; pH 7.0, 24 hr later): 107 µg/mL
Amount of the compound in test solution ([3]; pH 7.0, at the time of dissolution): 110 µg/mL
Amount of the compound in test solution ([3]; pH 10.0, 3 hr later): 79 µg/mL
Amount of the compound in test solution ([3]; pH 10.0, 24 hr later): 16 µg/mL
Amount of the compound in test solution ([3]; pH 10.0, at the time of dissolution): 102 µg/mL
degraded at 24 h ([3]; phosphate buffer, pH 10.0, after 24 hr, read-out: hydrolyzed in the aqueous solution): 84%

SMILES: CCc1c2c(nc3ccccc13)-c1cc(C(O)(CC)C(=O)[O-])c(CO)c(=O)n1C2.[Na+] (stereo not drawn) [Reference Compound, 7-ethylcamptothecin sodium salt, reference compound]
Anti-tumor activity (T/C%) ([2]; Table 2, total dose 3.13 mg/kg): 129%
Anti-tumor activity (T/C%) ([2]; Table 2, total dose 6.25 mg/kg): 142%
Anti-tumor activity (T/C%) ([2]; Table 2, total dose 12.5 mg/kg): 153%
Anti-tumor activity (T/C%) ([2]; Table 2, total dose 25 mg/kg): 211%
Anti-tumor activity (T/C%) ([2]; Table 2, total dose 50 mg/kg): 266%
Anti-tumor activity: fraction in parentheses after T/C% (meaning not given) ([2]; Table 2, total dose 100 mg/kg): 2/6
Anti-tumor activity (T/C%) ([2]; Table 2, total dose 100 mg/kg): 339%
Anti-tumor activity: fraction in parentheses after T/C% (meaning not given) ([2]; Table 2, total dose 200 mg/kg): 1/6
Anti-tumor activity (T/C%) ([2]; Table 2, total dose 200 mg/kg): 303%
Anti-tumor activity (T/C%) ([2]; Table 4, total dose 3.13 mg/kg): 126%
Anti-tumor activity (T/C%) ([2]; Table 4, total dose 6.25 mg/kg): 146%
Anti-tumor activity (T/C%) ([2]; Table 4, total dose 12.5 mg/kg): 151%
Anti-tumor activity (T/C%) ([2]; Table 4, total dose 25 mg/kg): 215%
Anti-tumor activity (T/C%) ([2]; Table 4, total dose 50 mg/kg): 249%
Anti-tumor activity: fraction in parentheses after T/C% (meaning not given) ([2]; Table 4, total dose 100 mg/kg): 4/6
Anti-tumor activity (T/C%) ([2]; Table 4, total dose 100 mg/kg): 513%
Anti-tumor activity: fraction in parentheses after T/C% (meaning not given) ([2]; Table 4, total dose 200 mg/kg): 1/6
Anti-tumor activity (T/C%) ([2]; Table 4, total dose 200 mg/kg): 362%
